Legend:
[1] = molecular target: T1, SMYD3 (Homo sapiens (Human), UniProt Q9H7B4); experiment: SMYD3 biochemical assay (SPA, 3H-SAM methylation of MEKK2 protein substrate); conditions: average of n = 1 to n = 50; read-out: SMYD3 Biochem IC50
In short: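 Methylation of N-terminally GST-tagged MEKK2 by untagged full-length human SMYD3, using 3H-SAM, in pH 8.0 Tris buffer with TCEP, BSG and Tween 20; enzyme and compound sat 30 min at room temperature before substrate addition. Stopped with 100 uM (final) cold SAM; incorporation read by scintillation proximity as dpm/cpm.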

[2] = molecular target: T1, SMYD3; experiment: SMYD3 cell assay (Trimethyl-MEKK2 In-Cell Western in 293T/17 cells); type: cell-based; conditions: average of n = 1 to n = 50; read-out: SMYD3 Cell IC50
In short: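 In-Cell Western readout: methanol-fixed cells stained for trimethyl-MEKK2 and flag tag, ratio per well normalized to DMSO and background controls.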

T1 sequence (Q9H7B4 whole entry): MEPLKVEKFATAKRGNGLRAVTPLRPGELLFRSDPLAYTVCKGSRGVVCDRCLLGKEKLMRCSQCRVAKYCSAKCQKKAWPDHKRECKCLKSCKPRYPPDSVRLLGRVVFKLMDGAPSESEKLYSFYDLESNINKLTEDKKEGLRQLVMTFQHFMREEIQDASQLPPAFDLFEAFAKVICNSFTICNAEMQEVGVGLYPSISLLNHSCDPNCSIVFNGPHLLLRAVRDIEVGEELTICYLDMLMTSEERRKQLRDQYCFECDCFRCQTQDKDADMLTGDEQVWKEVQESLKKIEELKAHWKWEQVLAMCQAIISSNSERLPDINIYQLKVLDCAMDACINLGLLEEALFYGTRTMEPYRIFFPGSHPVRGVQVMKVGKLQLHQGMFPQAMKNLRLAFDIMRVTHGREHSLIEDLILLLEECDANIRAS

## CCC1CN(S(=O)(=O)N2[C@@H]3CC[C@H]2C[C@@H](NC(=O)c2cc(C4CC4)on2)C3)CCN1 (stereo partly drawn) [compound 636, 5-cyclopropyl-N-((1R,3r,5S)-8-((3-ethylpiperazin-1-yl)sulfonyl)-8-azabicyclo[3.2.1]octan-3-yl)isoxazole-3-carboxamide]
[1]
  IC50: 33.2 nM
[2]
  IC50: 365 nM

## C[C@H]1CN(S(=O)(=O)N2CCNCC2)[C@@H](C)C[C@H]1NC(=O)c1cc(C2CC2)on1 [compound 637, 5-cyclopropyl-N-((2S,4R,5S)-2,5-dimethyl-1-(piperazin-1-ylsulfonyl)piperidin-4-yl)isoxazole-3-carboxamide]
[1]
  IC50: 33.4 nM
[2]
  IC50: 203 nM

## C[C@H]1C[C@@H](NC(=O)c2cc(C3CC3)on2)CCN1S(=O)(=O)N1CCNC(C)(C)C1 [compound 638, 5-cyclopropyl-N-((2S,4S)-1-((3,3-dimethylpiperazin-1-yl)sulfonyl)-2-methylpiperidin-4-yl)isoxazole-3-carboxamide]
[1]
  IC50: 33.7 nM
[2]
  IC50: 254 nM

## C[C@H]1C[C@@H](NC(=O)c2cc(C3CC3)on2)CCN1S(=O)(=O)N1CCCN(C)CC1 [compound 639, 5-cyclopropyl-N-((2S,4S)-2-methyl-1-((4-methyl-1,4-diazepan-1-yl)sulfonyl)piperidin-4-yl)isoxazole-3-carboxamide]
[1]
  IC50: 34.8 nM
[2]
  IC50: 258 nM

## CC(C)CNCCCS(=O)(=O)N1CC[C@H](NC(=O)c2cc(C3CC3)on2)C[C@@H]1C [compound 640, 5-cyclopropyl-N-((2S,4S)-1-((3-(isobutylamino)propyl)sulfonyl)-2-methylpiperidin-4-yl)isoxazole-3-carboxamide]
[1]
  IC50: 35.7 nM
[2]
  IC50: 480 nM

## CN1CCN(S(=O)(=O)N2[C@@H]3CC[C@H]2C[C@@H](NC(=O)c2cc(C4CC4)on2)C3)CC1 [compound 641, 5-cyclopropyl-N-((1R,3r,5S)-8-((4-methylpiperazin-1-yl)sulfonyl)-8-azabicyclo[3.2.1]octan-3-yl)isoxazole-3-carboxamide]
[1]
  IC50: 36.3 nM
[2]
  IC50: 188 nM

## C[C@@H]1CN(S(=O)(=O)CCCN)[C@H](C)C[C@@H]1NC(=O)c1cc(C2CC2)on1 [compound 642, N-((2R,4S,5R)-1-((3-aminopropyl)sulfonyl)-2,5-dimethylpiperidin-4-yl)-5-cyclopropylisoxazole-3-carboxamide]
[1]
  IC50: 37.6 nM
[2]
  IC50: 571 nM

## O=C(N[C@H]1C[C@H]2CC[C@@H](C1)N2S(=O)(=O)N1CCNC(CO)C1)c1cc(C2CC2)on1 (stereo partly drawn) [compound 643, 5-cyclopropyl-N-((1R,3r,5S)-8-((3-(hydroxymethyl)piperazin-1-yl)sulfonyl)-8-azabicyclo[3.2.1]octan-3-yl)isoxazole-3-carboxamide]
[1]
  IC50: 37.8 nM
[2]
  IC50: 211 nM

## C[C@@H]1C[C@H](NC(=O)c2cc(C3CC3)on2)CCN1C(=O)c1ccc(C2CCNCC2)cc1 [compound 644, 5-cyclopropyl-N-((2R,4R)-2-methyl-1-(4-(piperidin-4-yl)benzoyl)piperidin-4-yl)isoxazole-3-carboxamide]
[1]
  IC50: 41.3 nM
[2]
  IC50: 303 nM

## C[C@H]1C[C@@H](NC(=O)c2cc(C3CC3)on2)CCN1S(=O)(=O)CCCNC(c1ccccc1)c1ccccc1 [compound 645, N-((2S,4S)-1-((3-(benzhydrylamino)propyl)sulfonyl)-2-methylpiperidin-4-yl)-5-cyclopropylisoxazole-3-carboxamide]
[1]
  IC50: 44.4 nM
[2]
  IC50: 575 nM

## C[C@H]1CN(S(=O)(=O)NC2CCNCC2)CC[C@H]1NC(=O)c1cc(C2CC2)on1 [compound 646, 5-cyclopropyl-N-((3S,4R)-3-methyl-1-(N-(piperidin-4-yl)sulfamoyl)piperidin-4-yl)isoxazole-3-carboxamide]
[1]
  IC50: 45.2 nM
[2]
  IC50: 755 nM

## O=C(N[C@H]1CCN(S(=O)(=O)CC2CCNCC2)[C@@H](Cc2ccccc2)C1)c1cc(C2CC2)on1 [compound 647, N-((2S,4S)-2-benzyl-1-((piperidin-4-ylmethyl)sulfonyl)piperidin-4-yl)-5-cyclopropylisoxazole-3-carboxamide]
[1]
  IC50: 45.5 nM
[2]
  IC50: 809 nM

## COCCCN1CCC(CS(=O)(=O)N2CC[C@@H](NC(=O)c3cc(C4CC4)on3)[C@@H](C)C2)CC1 [compound 648, 5-cyclopropyl-N-((3S,4R)-1-(((1-(3-methoxypropyl)piperidin-4-yl)methyl)sulfonyl)-3-methylpiperidin-4-yl)isoxazole-3-carboxamide]
[1]
  IC50: 46.8 nM
[2]
  IC50: 331 nM

## CNCCS(=O)(=O)N1[C@@H]2CC[C@H]1C[C@@H](NC(=O)c1cc(C3CC3)on1)C2 [compound 649, 5-cyclopropyl-N-((1R,3r,5S)-8-((2-(methylamino)ethyl)sulfonyl)-8-azabicyclo[3.2.1]octan-3-yl)isoxazole-3-carboxamide]
[1]
  IC50: 47.2 nM
[2]
  IC50: 261 nM

## C[C@H]1C[C@@H](NC(=O)c2cc(C3CC3)on2)CCN1S(=O)(=O)NCCN [compound 650, N-((2S,4S)-1-(N-(2-aminoethyl)sulfamoyl)-2-methylpiperidin-4-yl)-5-cyclopropylisoxazole-3-carboxamide]
[1]
  IC50: 49.1 nM
[2]
  IC50: 4630 nM

## CN(C)C1CCN(CCS(=O)(=O)N2[C@@H]3CC[C@H]2C[C@@H](NC(=O)c2cc(C4CC4)on2)C3)C1 (stereo partly drawn) [compound 651, 5-cyclopropyl-N-((1R,3r,5S)-8-((2-(3-(dimethylamino)pyrrolidin-1-yl)ethyl)sulfonyl)-8-azabicyclo[3.2.1]octan-3-yl)isoxazole-3-carboxamide]
[1]
  IC50: 50.6 nM
[2]
  IC50: 532 nM

## C[C@@H]1C[C@@H](NC(=O)c2cc(C3CC3)on2)CCN1S(=O)(=O)N1CCNCC1 [compound 652, 5-cyclopropyl-N-((2R,4S)-2-methyl-1-(piperazin-1-ylsulfonyl)piperidin-4-yl)isoxazole-3-carboxamide]
[1]
  IC50: 51.1 nM
[2]
  IC50: 339 nM

## C[C@H]1CN(S(=O)(=O)N(C)C2CCNCC2)CC[C@H]1NC(=O)c1cc(C2CC2)on1 [compound 653, 5-cyclopropyl-N-((3S,4R)-3-methyl-1-(N-methyl-N-(piperidin-4-yl)sulfamoyl)piperidin-4-yl)isoxazole-3-carboxamide]
[1]
  IC50: 55 nM
[2]
  IC50: 328 nM

## COCCN1CCC(CS(=O)(=O)N2CC[C@@H](NC(=O)c3cc(C4CC4)on3)[C@@H](C)C2)CC1 [compound 654, 5-cyclopropyl-N-((3S,4R)-1-(((1-(2-methoxyethyl)piperidin-4-yl)methyl)sulfonyl)-3-methylpiperidin-4-yl)isoxazole-3-carboxamide]
[1]
  IC50: 56 nM
[2]
  IC50: 340 nM

## C[C@H]1CN(S(=O)(=O)CC2CCN(Cc3ccccc3)CC2)CC[C@H]1NC(=O)c1cc(C2CC2)on1 [compound 655, N-((3S,4R)-1-(((1-benzylpiperidin-4-yl)methyl)sulfonyl)-3-methylpiperidin-4-yl)-5-cyclopropylisoxazole-3-carboxamide]
[1]
  IC50: 56.4 nM
[2]
  IC50: 497 nM

## CN1CCN(S(=O)(=O)N2[C@@H]3CC[C@H]2C[C@@H](NC(=O)c2cc(C4CC4)on2)C3)CC1(C)C [compound 656, 5-cyclopropyl-N-((1R,3r,5S)-8-((3,3,4-trimethylpiperazin-1-yl)sulfonyl)-8-azabicyclo[3.2.1]octan-3-yl)isoxazole-3-carboxamide]
[1]
  IC50: 59.8 nM
[2]
  IC50: 441 nM

## C[C@@H]1CN(C(=O)c2ccc(C(C)(C)N)cc2)[C@H](C)C[C@@H]1NC(=O)c1cc(C2CC2)on1 [compound 657, N-((2R,4S,5R)-1-(4-(2-aminopropan-2-yl)benzoyl)-2,5-dimethylpiperidin-4-yl)-5-cyclopropylisoxazole-3-carboxamide]
[1]
  IC50: 63.4 nM
[2]
  IC50: 634 nM

## C[C@@H]1C[C@H](NC(=O)c2cc(C3CC3)on2)CCN1C(=O)c1ccc(CN2CCNCC2)cc1 [compound 658, 5-cyclopropyl-N-((2R,4R)-2-methyl-1-(4-(piperazin-1-ylmethyl)benzoyl)piperidin-4-yl)isoxazole-3-carboxamide]
[1]
  IC50: 64.7 nM
[2]
  IC50: 1400 nM

## CN(C1CCN(Cc2ccccc2)CC1)S(=O)(=O)N1[C@@H]2CC[C@H]1C[C@@H](NC(=O)c1cc(C3CC3)on1)C2 [compound 659, N-((1R,3r,5S)-8-(N-(1-benzylpiperidin-4-yl)-N-methylsulfamoyl)-8-azabicyclo[3.2.1]octan-3-yl)-5-cyclopropylisoxazole-3-carboxamide]
[1]
  IC50: 66.4 nM
[2]
  IC50: 578 nM

## CC1CN(S(=O)(=O)N2[C@@H]3CC[C@H]2C[C@@H](NC(=O)c2cc(C4CC4)on2)C3)CCN1C (stereo partly drawn) [compound 660, 5-cyclopropyl-N-((1R,3r,5S)-8-((3,4-dimethylpiperazin-1-yl)sulfonyl)-8-azabicyclo[3.2.1]octan-3-yl)isoxazole-3-carboxamide]
[1]
  IC50: 66.7 nM
[2]
  IC50: 414 nM

## C[C@@H]1CN(S(=O)(=O)N2CC[C@H](NC(=O)c3cc(C4CC4)on3)C[C@@H]2C)[C@@H](C)CN1 [compound 661, 5-cyclopropyl-N-((2S,4S)-1-(((2S,5R)-2,5-dimethylpiperazin-1-yl)sulfonyl)-2-methylpiperidin-4-yl)isoxazole-3-carboxamide]
[1]
  IC50: 77.3 nM
[2]
  IC50: 490 nM

## O=C(N[C@H]1CCN(S(=O)(=O)CC2CCN(CCO)CC2)[C@@H](Cc2ccccc2)C1)c1cc(C2CC2)on1 [compound 662, N-((2S,4S)-2-benzyl-1-(((1-(2-hydroxyethyl)piperidin-4-yl)methyl)sulfonyl)piperidin-4-yl)-5-cyclopropylisoxazole-3-carboxamide]
[1]
  IC50: 80.1 nM
[2]
  IC50: 1550 nM
